Drawing on patent publication US20260138959A1, “QUINAZOLINE DERIVATIVE COMPOUND AND USE THEREOF” (VORONOI INC., priority 2021, published 2026), this text covers GI50 and IC50 for 15 compounds.

Some results are limits rather than exact numbers.

In one experiment the test system is Ba/F3-c-KIT(D816V). In words: Proliferation inhibitory activity on Ba/F3 cell (CellTiter-Glo, 72 hours), c-KIT(D816V). The class given is cell-based. Particulars: Mus musculus, BaF3, read-out: Ba/F3 (nM) c-KIT (D816V) (GI50 class). The essentials:
(§1)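 Ba/F3 lines dependent on the indicated kinase, seeded at 3×10^3 cells/well, treated with 12 three-fold dilutions at 0.00005–10 μM final for 72 h at 37 °C. Viability read by CellTiter-Glo luminescence relative to DMSO vehicle; GI50 derived from curve fit.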

In another experiment the target is T1, human PDGFR-β(wt) (Homo sapiens, UniProt P09619).
T1 construct: purchased Signalchem P13-11G
T1 sequence (P09619 33-1106): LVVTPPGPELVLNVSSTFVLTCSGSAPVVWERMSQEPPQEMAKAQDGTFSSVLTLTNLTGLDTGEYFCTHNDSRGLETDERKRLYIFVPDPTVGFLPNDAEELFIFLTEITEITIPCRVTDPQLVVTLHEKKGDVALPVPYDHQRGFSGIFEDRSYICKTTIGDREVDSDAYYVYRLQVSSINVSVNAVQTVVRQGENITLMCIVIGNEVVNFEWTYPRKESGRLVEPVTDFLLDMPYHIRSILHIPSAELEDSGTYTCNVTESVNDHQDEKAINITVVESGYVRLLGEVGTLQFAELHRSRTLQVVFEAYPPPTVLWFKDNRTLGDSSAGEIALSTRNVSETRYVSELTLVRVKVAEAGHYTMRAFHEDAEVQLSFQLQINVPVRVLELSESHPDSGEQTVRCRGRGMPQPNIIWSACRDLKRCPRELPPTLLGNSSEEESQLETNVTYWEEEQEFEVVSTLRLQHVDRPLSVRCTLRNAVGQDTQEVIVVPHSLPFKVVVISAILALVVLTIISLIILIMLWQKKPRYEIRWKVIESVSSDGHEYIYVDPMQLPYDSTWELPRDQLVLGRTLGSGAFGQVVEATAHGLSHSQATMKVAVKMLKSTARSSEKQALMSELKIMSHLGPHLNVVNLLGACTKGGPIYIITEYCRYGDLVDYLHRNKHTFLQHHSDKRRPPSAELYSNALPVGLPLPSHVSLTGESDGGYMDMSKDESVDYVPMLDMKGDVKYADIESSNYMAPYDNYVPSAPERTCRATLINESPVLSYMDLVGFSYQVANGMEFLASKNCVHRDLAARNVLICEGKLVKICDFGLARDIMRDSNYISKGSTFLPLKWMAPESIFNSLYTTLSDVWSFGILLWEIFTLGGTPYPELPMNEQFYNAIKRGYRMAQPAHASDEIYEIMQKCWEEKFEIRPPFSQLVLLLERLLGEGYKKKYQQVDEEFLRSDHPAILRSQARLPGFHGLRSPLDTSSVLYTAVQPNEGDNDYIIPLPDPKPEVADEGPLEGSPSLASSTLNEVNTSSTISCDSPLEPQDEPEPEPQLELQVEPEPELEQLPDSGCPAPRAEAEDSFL
In words: Enzyme inhibitory activity, ADP-Glo kinase assay, PDGFR-β(wt). The class given is biochemical. The following applies: read-out: PDGFR-β (IC50 class). As for the experimental part:
(§2) In order to evaluate the inhibitory activity of the compounds synthesized according to the above examples on PDGFR-α(wt), PDGFR-β(wt), c-KIT(wt), and c-KIT(D816V) kinases, the following method was performed. The compounds of examples were reacted with purified human PDGFR-α(wt) (Signalchem #P12-18G) enzyme, human PDGFR-β(wt) (Signalchem #P13-11G) enzyme, human c-KIT(wt) (Signalchem #K06-11BG) enzyme, human c-KIT(D816V) (Signalchem #C06-12LG) enzyme, and the enzyme inhibitory abilities were evaluated by the following method.
(§3) The reaction buffer was used as a composition of 40 mM Tris-HCl pH7.4, 20 mM MgCl2, 0.5 mg/ml BSA, 50 μM DTT, and the reactions of all the tests were carried out on the reaction buffer. The compound was diluted in 12 steps using a serial dilution method from a 10 mM DMSO stock, and the enzyme activity was measured at a final compound concentration of 10˜0.00005645 μM. During the test, the enzyme activity was confirmed using in vitro ADP-Glo™ kinase assay (Promega) after reacting with the proper concentration of human PDGFR-α(wt) enzyme, human PDGFR-β(wt), human c-KIT(wt) enzyme, and human c-KIT(D816V) enzyme with purified ATP and enzyme substrate at 25° C. for 1˜2 hours. At a ratio of 2:2:1, an enzyme-active reaction solution, an ADP-Glo reaction solution, and an enzyme-active detection solution were reacted to measure the inhibition of the enzyme's activity with luminoscence. Based on the […] of the enzyme activity of the solvent control that was not treated with the compound, the degree of enzyme activity inhibition was calculated according to the treatment concentration of each compound, and the concentration of each compound that inhibits 50% of enzyme activity was determined as IC50 (nM) value and the value was obtained by using GraphPad Prism 8.3.0 (GraphPad software Inc., San Diego) software. (A: IC50≤50 nM; B: 50 nM<IC50≤100 nM; C: 100 nM<IC50≤500 nM; D: IC50>500 nM).

In a further experiment the test system is c-KIT V560G/D816V. Nature of the experiment: Proliferation inhibitory activity on Ba/F3 cell (CellTiter-Glo, 72 hours), c-KIT V560G/D816V. The class given is cell-based. The following applies: Mus musculus, BaF3, c-KIT V560G/D816V cells, read-out: Cell (nM) c-KIT V560G/D816V (GI50 class). Put shortly: as §1
The subject of another experiment is Ba/F3-TEL-PDGFβ(WT). Nature of the experiment: Proliferation inhibitory activity on Ba/F3 cell (CellTiter-Glo, 72 hours), PDGFR-β. In kind it is cell-based. Particulars: Mus musculus, BaF3, read-out: Ba/F3 (nM) Tel-PDGFRβ (GI50 class). As for the experimental part: (§4) Ba/F3-TEL-PDGFRα(WT), Ba/F3-TEL-PDGFβ(WT), Ba/F3-c-KIT(D816V) (Kyinno, #KC-0138), c-KIT V560G/D816V, c-KIT D814Y were seeded at 3×10^3/100 μl/well in a clear bottom white 96-well plate. A culture solution containing compounds of 12 concentrations (0.00001-2 mM) serially diluted in 3 folds and the DMSO control group was added at 0.5 μl/well each to a final concentration of 0.00005-10 μM, and then incubated in a CO2 incubator at 37° C. for 72 hours. After 72 hours, the plate treated with the compound was taken out, CellTiter-Glo® Assay (Promega) solution was treated with 100 μl/well, followed by mixing well. After mixing well for about 10 minutes at room temperature, […] was measured using a microplate reader. The data were presented as percentages in proportion to treated cells based on the vehicle, GI50 (nM) values were calculated using GraphPad Prism 8.3.0 (GraphPad software Inc., San Diego).
(§5) The inhibitory activities of Ba/F3 expressing PDGFR-α, PDGFR-β, c-KIT(D816V), c-KIT V560G/D816V, and c-KIT D814Y measured as described above were measured and shown in Table 7 below (A: GI50≤200 nM; B: 200 nM<GI50≤500 nM; C: GI50>500 nM).

The next experiment has as its system Ba/F3-TEL-PDGFRα(WT). In words: Proliferation inhibitory activity on Ba/F3 cell (CellTiter-Glo, 72 hours), PDGFR-α. The class given is cell-based. The following applies: Mus musculus, BaF3, read-out: Ba/F3 (nM) Tel-PDGFRα (GI50 class). How it is done: as §4, §5
The target in another experiment is T2, human PDGFR-α(wt) (Homo sapiens, UniProt P16234).
T2 construct: purchased Signalchem P12-18G
T2 sequence (P16234 24-1089): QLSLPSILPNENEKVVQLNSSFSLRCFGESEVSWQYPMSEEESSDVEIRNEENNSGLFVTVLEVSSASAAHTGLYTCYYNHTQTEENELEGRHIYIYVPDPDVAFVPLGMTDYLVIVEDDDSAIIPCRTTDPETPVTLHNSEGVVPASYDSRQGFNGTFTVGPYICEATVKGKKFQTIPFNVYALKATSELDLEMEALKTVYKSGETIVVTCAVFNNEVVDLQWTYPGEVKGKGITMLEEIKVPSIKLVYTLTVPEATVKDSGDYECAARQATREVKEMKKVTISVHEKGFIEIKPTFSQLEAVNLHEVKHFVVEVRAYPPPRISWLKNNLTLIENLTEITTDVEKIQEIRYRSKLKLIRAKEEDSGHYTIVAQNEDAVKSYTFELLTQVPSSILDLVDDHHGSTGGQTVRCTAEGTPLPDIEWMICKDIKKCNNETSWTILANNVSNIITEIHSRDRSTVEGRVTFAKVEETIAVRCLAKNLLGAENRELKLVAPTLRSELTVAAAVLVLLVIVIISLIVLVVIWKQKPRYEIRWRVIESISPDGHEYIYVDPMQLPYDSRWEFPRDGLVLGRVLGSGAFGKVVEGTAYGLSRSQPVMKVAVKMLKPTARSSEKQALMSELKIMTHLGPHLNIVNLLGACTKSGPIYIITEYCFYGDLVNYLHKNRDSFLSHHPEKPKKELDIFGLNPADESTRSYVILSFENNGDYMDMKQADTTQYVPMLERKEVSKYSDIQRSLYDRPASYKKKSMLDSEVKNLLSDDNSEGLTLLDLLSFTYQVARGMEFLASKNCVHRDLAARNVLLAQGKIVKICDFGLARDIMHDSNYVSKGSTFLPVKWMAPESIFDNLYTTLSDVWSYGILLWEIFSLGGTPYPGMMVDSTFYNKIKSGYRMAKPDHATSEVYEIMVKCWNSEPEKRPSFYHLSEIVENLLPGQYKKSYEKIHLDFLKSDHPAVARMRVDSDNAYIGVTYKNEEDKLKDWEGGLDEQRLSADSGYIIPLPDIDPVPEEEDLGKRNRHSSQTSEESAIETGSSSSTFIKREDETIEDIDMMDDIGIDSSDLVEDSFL
In words: Enzyme inhibitory activity, ADP-Glo kinase assay, PDGFR-α(wt). In kind it is biochemical. Particulars: read-out: PDGFR-α (IC50 class). How it is done: as §2, §3

Consider `COc1cc2c(-c3ccc(NC(=O)Cc4ccc(C(F)(F)F)cc4)cc3)ncnc2cc1OCCCN1CCN(C2CC2)CC1` [Example 142, N-(4-(7-(3-(4-cyclopropylpiperazin-1-yl)propoxy)-6-methoxyquinazolin-4-yl)phenyl)-2-(4-(trifluoromethyl)phenyl)acetamide], for which the GI50 in the experiment on Ba/F3-c-KIT(D816V), in the experiment with c-KIT V560G/D816V and with Ba/F3-TEL-PDGFβ(WT) was at most 200 nM each time. In addition, the concentration for half-maximal inhibition (IC50) on human PDGFR-β(wt) was at most 50 nM.

Take `COc1cc2ncnc(-c3ccc(NC(=O)Cc4ccc(C(F)(F)F)cc4)cc3)c2cc1OCCCN1C[C@@H]2C[C@H]1CN2C` [Example 158, N-(4-(7-methoxy-6-(3-((1S,4S)-5-methyl-2,5-diazabicyclo[2.2.1]heptane-2-yl)propoxy)quinazolin-4-yl)phenyl)-2-(4-(trifluoromethyl)phenyl)acetamide]: the GI50 in the experiment with Ba/F3-c-KIT(D816V) was at most 200 nM; in the experiment on c-KIT V560G/D816V it was 200 to 500 nM; in the experiment with Ba/F3-TEL-PDGFβ(WT), at most 200 nM. Also, the IC50 on human PDGFR-β(wt) was at most 50 nM.

Take `COc1cc2c(-c3ccc(NC(=O)Cc4ccc5c(c4)CCO5)cc3)ncnc2cc1OCCCN1CCN(C)CC1` [Example 85, 2-(2,3-dihydrobenzofuran-5-yl)-N-(4-(6-methoxy-7-(3-(4-methylpiperazin-1-yl)propoxy)quinazolin-4-yl)phenyl)acetamide]: the GI50 was at most 200 nM in the experiment with Ba/F3-c-KIT(D816V), 200 to 500 nM with c-KIT V560G/D816V, at most 200 nM in the experiment on Ba/F3-TEL-PDGFβ(WT) and at most 200 nM with Ba/F3-TEL-PDGFRα(WT). Also, the IC50 on human PDGFR-β(wt) and at human PDGFR-α(wt) was at most 50 nM in each case.

Consider `COCCOc1cc2ncnc(-c3ccc(NC(=O)C(C)(N)c4ccc(F)cc4)cc3)c2cc1OCCOC` (centres unmarked) [Example 58, 2-amino-N-(4-(6,7-bis(2-methoxyethoxy)quinazolin-4-yl)phenyl)-2-(4-fluorophenyl)propanamide], for which the GI50 in the experiment with Ba/F3-c-KIT(D816V) was at most 200 nM; in the experiment on c-KIT V560G/D816V, above 500 nM; with Ba/F3-TEL-PDGFβ(WT) it was at most 200 nM; in the experiment with Ba/F3-TEL-PDGFRα(WT) it was at most 200 nM. Also, the concentration for half-maximal inhibition (IC50) at human PDGFR-β(wt) and on human PDGFR-α(wt) was at most 50 nM in each case.

For the compound `COc1cc2ncnc(-c3ccc(NC(=O)Cc4ccc(C(F)(F)F)cc4)cc3)c2cc1OCCCN1CC2(CCOCC2)C1` [Example 151, N-(4-(6-(3-(7-oxa-2-azaspiro[3.5]nonane-2-yl)propoxy)-7-methoxyquinazolin-4-yl)phenyl)-2-(4-(trifluoromethyl)phenyl)acetamide], the GI50 in the experiment with Ba/F3-c-KIT(D816V), in the experiment with Ba/F3-TEL-PDGFβ(WT) and with Ba/F3-TEL-PDGFRα(WT) was at most 200 nM each time. Besides, the half-inhibitory concentration (IC50) at human PDGFR-β(wt) and on human PDGFR-α(wt) was at most 50 nM in each case.

As to `CCN1CC2(C1)CN(CCCOc1cc3c(-c4ccc(NC(=O)Cc5ccc(C(F)(F)F)cc5)cc4)ncnc3cc1OC)C2` [Example 149], the values for the GI50 in the experiment on Ba/F3-c-KIT(D816V), in the experiment with Ba/F3-TEL-PDGFβ(WT) and in the experiment with Ba/F3-TEL-PDGFRα(WT) were above 500 nM, at most 200 nM and at most 200 nM, respectively. The IC50 on human PDGFR-β(wt) and on human PDGFR-α(wt) was at most 50 nM in each case.

On to `COc1cc2ncnc(-c3ccc(NC(=O)Cc4ccc(F)cc4)cc3)c2cc1O` [Example 124, 2-(4-fluorophenyl)-N-(4-(6-hydroxy-7-methoxyquinazolin-4-yl)phenyl)acetamide], for which the figures for the 50% inhibitory concentration (IC50) at human PDGFR-β(wt) and on human PDGFR-α(wt) were 100 to 500 nM and at most 50 nM, respectively. The GI50 in the experiment on Ba/F3-TEL-PDGFβ(WT) and in the experiment with Ba/F3-TEL-PDGFRα(WT) was at most 200 nM throughout.

As to `COCCN1CCC(COc2cc3ncnc(-c4ccc(NC(=O)C(C)(C)c5ccc(F)cc5)cc4)c3cc2OC)CC1` [Example 89, 2-(4-fluorophenyl)-N-(4-(6-methoxy-7-((1-(2-methoxyethyl)piperidin-4-yl)methoxy)quinazolin-4-yl)phenyl)-2-methylpropanamide], the IC50 at human PDGFR-β(wt) and on human PDGFR-α(wt) was at most 50 nM each time. Also, the GI50 in the experiment with c-KIT V560G/D816V, in the experiment with Ba/F3-TEL-PDGFβ(WT) and with Ba/F3-TEL-PDGFRα(WT) was at most 200 nM throughout.

For the compound `COc1cc2ncnc(-c3ccc(NC(=O)Cc4ccc(C(F)(F)F)cc4)cc3)c2cc1OCCCN1CCN2CCCC2C1` (centres unmarked) [Example 161, N-(4-(6-(3-(hexahydropyrrolo[1,2-a]pyrazin-2(1H)-yl)propoxy)-7-methoxyquinazolin-4-yl)phenyl)-2-(4-(trifluoromethyl)phenyl)acetamide], the GI50 in the experiment with Ba/F3-c-KIT(D816V), in the experiment with c-KIT V560G/D816V and with Ba/F3-TEL-PDGFβ(WT) was at most 200 nM each time. Moreover, on human PDGFR-β(wt), the IC50 is at most 50 nM.

Take `CCN1CCC(COc2cc3ncnc(-c4ccc(NC(=O)C(C)(C)c5ccc(F)cc5)cc4)c3cc2OC)CC1` [Example 90, N-(4-(7-((1-ethylpiperidin-4-yl)methoxy)-6-methoxyquinazolin-4-yl)phenyl)-2-(4-fluorophenyl)-2-methylpropanamide]: the IC50 on human PDGFR-β(wt) and on human PDGFR-α(wt) was at most 50 nM throughout. Also, the GI50 in the experiment with c-KIT V560G/D816V, with Ba/F3-TEL-PDGFβ(WT) and with Ba/F3-TEL-PDGFRα(WT) was at most 200 nM throughout.

In the case of `CCN1CCC(COc2cc3c(-c4ccc(NC(=O)Cc5ccc(C(F)(F)F)cc5)cc4)ncnc3cc2OC)CC1` [Example 147, N-(4-(6-((1-ethylpiperidin-4-yl)methoxy)-7-methoxyquinazolin-4-yl)phenyl)-2-(4-(trifluoromethyl)phenyl)acetamide], the GI50 in the experiment on Ba/F3-c-KIT(D816V), in the experiment on Ba/F3-TEL-PDGFβ(WT) and with Ba/F3-TEL-PDGFRα(WT) was at most 200 nM in each case. Besides, the concentration for half-maximal inhibition (IC50) on human PDGFR-β(wt) and at human PDGFR-α(wt) was at most 50 nM each time.

`CCN1CCC(COc2cc3ncnc(-c4ccc(NC(=O)Cc5ccc6c(c5)OCO6)cc4)c3cc2OC)CC1` [Example 99, 2-(benzo[d][1,3]dioxol-5-yl)-N-(4-(7-((1-ethylpiperidin-4-yl)methoxy)-6-methoxyquinazolin-4-yl)phenyl)acetamide]: the IC50 on human PDGFR-β(wt) is at most 50 nM. Further, the GI50 in the experiment with c-KIT V560G/D816V and with Ba/F3-TEL-PDGFβ(WT) was at most 200 nM in each case.

As to `COc1ccc(CC(=O)Nc2ccc(-c3ncnc4cc(OCC5CCN(C(C)C)CC5)c(OC)cc34)cc2)cn1` [Example 116, N-(4-(7-((1-isopropylpiperidin-4-yl)methoxy)-6-methoxyquinazolin-4-yl)phenyl)-2-(6-methoxypyridin-3-yl)acetamide], the concentration for half-maximal inhibition (IC50) on human PDGFR-β(wt) is at most 50 nM. The GI50 in the experiment with c-KIT V560G/D816V and in the experiment with Ba/F3-TEL-PDGFβ(WT) was at most 200 nM throughout.

As for `COc1cc2c(-c3ccc(NC(=O)Cc4ccc5c(c4)OCO5)cc3)ncnc2cc1OCC1CCNCC1` [Example 97, 2-(benzo[d][1,3]dioxol-5-yl)-N-(4-(6-methoxy-7-(piperidin-4-ylmethoxy)quinazolin-4-yl)phenyl)acetamide], the half-inhibitory concentration (IC50) on human PDGFR-β(wt) is at most 50 nM. Moreover, the values for the GI50 with c-KIT V560G/D816V and in the experiment with Ba/F3-TEL-PDGFβ(WT) were above 500 nM and at most 200 nM, respectively.

`CCN1CCCC(COc2cc3ncnc(-c4ccc(NC(=O)Cc5ccc(C(F)(F)F)nc5)cc4)c3cc2OC)C1` (centres unmarked) [Example 110, N-(4-(7-((1-ethylpiperidin-3-yl)methoxy)-6-methoxyquinazolin-4-yl)phenyl)-2-(6-(trifluoromethyl)pyridin-3-yl)acetamide]: the concentration for half-maximal inhibition (IC50) on human PDGFR-β(wt) was at most 50 nM. In addition, the GI50 with c-KIT V560G/D816V and in the experiment with Ba/F3-TEL-PDGFβ(WT) was at most 200 nM throughout.
